We go through 17 compounds from ChEMBL document CHEMBL4715842, “Sulfonamide/sulfamate switch with a series of piperazinylureido derivatives: Synthesis, kinetic and in silico evaluation as carbonic anhydrase isoforms I, II, IV, and IX inhibitors” (Eur J Med Chem, 2020).

For one assay, the target named is Carbonic anhydrase 1 (Homo sapiens, UniProt P00915). The assay can be described thus: Inhibition of recombinant human carbonic anhydrase 1 incubated for 15 mins prior to testing measured for 10 to 100 secs by phenol red-based stopped-flow CO2 hydration assay.
Carbonic anhydrase 1, sequence (P00915 whole entry): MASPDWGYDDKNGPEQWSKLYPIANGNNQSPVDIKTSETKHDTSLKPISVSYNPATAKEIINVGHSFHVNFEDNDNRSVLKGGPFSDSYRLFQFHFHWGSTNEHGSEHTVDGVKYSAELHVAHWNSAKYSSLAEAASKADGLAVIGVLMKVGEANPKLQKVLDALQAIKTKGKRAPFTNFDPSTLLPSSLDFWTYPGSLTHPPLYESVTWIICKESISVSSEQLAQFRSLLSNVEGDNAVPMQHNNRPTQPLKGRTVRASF
A further assay deals with Carbonic anhydrase 2 (Homo sapiens, UniProt P00918). The assay can be described thus: Inhibition of recombinant human carbonic anhydrase 2 incubated for 15 mins prior to testing measured for 10 to 100 secs by phenol red-based stopped-flow CO2 hydration assay.
The target in a further assay is Carbonic anhydrase 4 (Homo sapiens, UniProt P22748). The assay can be described thus: Inhibition of recombinant human carbonic anhydrase 4 incubated for 15 mins prior to testing measured for 10 to 100 secs by phenol red-based stopped-flow CO2 hydration assay.
Carbonic anhydrase 4, sequence (P22748 whole entry): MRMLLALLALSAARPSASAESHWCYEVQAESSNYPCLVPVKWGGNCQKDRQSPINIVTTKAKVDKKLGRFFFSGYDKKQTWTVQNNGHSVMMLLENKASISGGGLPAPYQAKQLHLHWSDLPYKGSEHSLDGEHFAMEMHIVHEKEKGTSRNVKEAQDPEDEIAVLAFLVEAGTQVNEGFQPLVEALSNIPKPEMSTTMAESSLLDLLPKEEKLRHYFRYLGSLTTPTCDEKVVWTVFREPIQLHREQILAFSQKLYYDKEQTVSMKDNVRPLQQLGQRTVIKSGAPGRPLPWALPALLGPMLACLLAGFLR
The target of a further assay is Carbonic anhydrase 9 (Homo sapiens, UniProt Q16790). The assay can be described thus: Inhibition of recombinant human carbonic anhydrase 9 incubated for 15 mins prior to testing measured for 10 to 100 secs by phenol red-based stopped-flow CO2 hydration assay.
For another assay, the species on record is Homo sapiens. The assay can be described thus: Selectivity ratio of Ki for inhibition of recombinant human carbonic anhydrase 2 to Ki for Ki for inhibition of recombinant human carbonic anhydrase 9.

In general, Ki refers to the equilibrium dissociation constant of an inhibitor or competing ligand from its target. In the case of `Cc1ccccc1N1CCN(C(=O)Nc2ccc(OS(N)(=O)=O)cc2)CC1`, the Ki at Carbonic anhydrase 1 worked out at 692 nM; at Carbonic anhydrase 2, 56.9 nM; at Carbonic anhydrase 4, 759 nM; on Carbonic anhydrase 9, 29700 nM.
For the compound `NS(=O)(=O)Oc1ccc(NC(=O)N2CCN(c3ccc(Cl)cc3)CC2)cc1`, at Carbonic anhydrase 4, the Ki worked out at 2590 nM.
Turning to `CCCCCCCCN1CCN(C(=O)Nc2ccc(OS(N)(=O)=O)cc2)CC1`, the inhibitory constant (Ki) at Carbonic anhydrase 1 came to 752 nM; on Carbonic anhydrase 2, 15.9 nM; at Carbonic anhydrase 4, 4800 nM; at Carbonic anhydrase 9 it was 31400 nM.
As to `NS(=O)(=O)Oc1ccc(NC(=O)N2CCN(c3nccc(-c4cccc(Br)c4)n3)CC2)cc1`, the inhibition constant (Ki) on Carbonic anhydrase 1 was 7770 nM; at Carbonic anhydrase 2, 124 nM; on Carbonic anhydrase 4, 831 nM; on Carbonic anhydrase 9 it was 30500 nM.
Take `Cc1cccc(N2CCN(C(=O)Nc3ccc(OS(N)(=O)=O)cc3)CC2)c1`: in the assay filed under Homo sapiens, the Ratio Ki is 16.
On to `CCCCCCCCCCN1CCN(C(=O)Nc2ccc(OS(N)(=O)=O)cc2)CC1`, for which the Ki was 680 nM at Carbonic anhydrase 1, 21 nM on Carbonic anhydrase 2, 4190 nM at Carbonic anhydrase 4 and 32200 nM at Carbonic anhydrase 9.
`NS(=O)(=O)Oc1ccc(NC(=O)N2CCN(Cc3cc4ccccc4o3)CC2)cc1`: the Ki at Carbonic anhydrase 1 amounted to 760 nM; at Carbonic anhydrase 2 it was 36.2 nM; on Carbonic anhydrase 9, 32700 nM.
With `NS(=O)(=O)Oc1ccc(NC(=O)N2CCN(c3ccc(Cl)c(Cl)c3)CC2)cc1`, the inhibition constant Ki on Carbonic anhydrase 1 was 919 nM; on Carbonic anhydrase 2 it was 45.4 nM; on Carbonic anhydrase 4, 1640 nM.
Regarding `COc1ccc(N2CCN(C(=O)Nc3ccc(OS(N)(=O)=O)cc3)CC2)cc1`, the Ki at Carbonic anhydrase 4 amounted to 1630 nM.
The same measure, in the same setting: in the case of `COc1cccc(N2CCN(C(=O)Nc3ccc(OS(N)(=O)=O)cc3)CC2)c1` it was 994 nM.
For the compound `NS(=O)(=O)Oc1ccc(NC(=O)N2CCN(c3nccc(-c4cccc(C(F)(F)F)c4)n3)CC2)cc1`, the Ki is 3470 nM at Carbonic anhydrase 1, 58.7 nM at Carbonic anhydrase 2, 458 nM at Carbonic anhydrase 4 and 27100 nM on Carbonic anhydrase 9.
For `COc1ccc(-c2ccnc(N3CCN(C(=O)Nc4ccc(OS(N)(=O)=O)cc4)CC3)n2)cc1`, the Ki was 3930 nM on Carbonic anhydrase 1, 29.1 nM on Carbonic anhydrase 2, 384 nM on Carbonic anhydrase 4 and 31800 nM on Carbonic anhydrase 9.
`NS(=O)(=O)Oc1ccc(NC(=O)N2CCN(c3ccccc3)CC2)cc1`: the Ratio Ki in the assay filed under Homo sapiens was 7.
Consider `Cc1cccc(-c2ccnc(N3CCN(C(=O)Nc4ccc(OS(N)(=O)=O)cc4)CC3)n2)c1`, for which the inhibition constant (Ki) at Carbonic anhydrase 1 amounted to 4070 nM; at Carbonic anhydrase 2, 207 nM; on Carbonic anhydrase 4, 1320 nM; at Carbonic anhydrase 9, 93300 nM.
On to `NS(=O)(=O)Oc1ccc(NC(=O)N2CCN(c3nccc(-c4ccccc4)n3)CC2)cc1`, for which the Ki was found to be 2370 nM at Carbonic anhydrase 1, 706 nM at Carbonic anhydrase 2, 4100 nM on Carbonic anhydrase 4 and 156000 nM at Carbonic anhydrase 9.
For `Cc1cccc(N2CCN(C(=O)Nc3ccc(OS(N)(=O)=O)cc3)CC2)c1C`, the Ki at Carbonic anhydrase 4 was 1090 nM.
As for `COc1cc(-c2ccnc(N3CCN(C(=O)Nc4ccc(OS(N)(=O)=O)cc4)CC3)n2)cc(OC)c1OC`, the Ki was found to be 5280 nM at Carbonic anhydrase 1, 6.8 nM at Carbonic anhydrase 2, 280 nM on Carbonic anhydrase 4 and 24200 nM at Carbonic anhydrase 9.
